Like-named read-outs stand apart in the source and are kept apart here.
Tests used:
Format in all cases: cell-based
[1] = target: TGF-β-R/FKBP12 (Rattus norvegicus, UniProt Q62658); experiment: luminescent yeast two-hybrid assay, inhibition of protein interaction by small molecules (luc reporter)
Protocol: They were grown from frozen transformants.
(§1) 20µl of yeast cultures were delivered into 96 well half area white plates (Coming-Costar, ref. 3693). When applicable, 2µl of either DMSO 10% or 10µM of small molecules were added. 2µl of Galactose 20% were added to the wells to induce the expression of the preys. When two different yeast cultures were mixed in a single well, 10µl of each culture were used, to reach a total of 20µl. Plates were incubated at room temperature and left non-agitated for various times. To reveal the activity of both luciferases, a Dual-Glo™ luciferase assay system was used (Promega, ref. E2920) according to the instructions of the manufacturer. Briefly, to lyse the yeast and reveal the activity of firefly luciferase, 25µl of reagent was added and the plates were incubated for another 40 to 60min at room temperature, without agitation, before being read in a luminometer. To reveal the activity of Renilla luciferase, 25µl of "stop&glo reagent" were added to the wells and the plates were incubated for another 60min at room temperature, without agitation, before a second reading. Luminescence was measured by a Trilux (Perkin Elmer) setting the integration at 1sec/well. Values are given in LCPS (1LCPS = 100 counts per sec).

[2] = target: T1, interaction between Trα and NCoR (Homo sapiens, UniProt P10827); experiment: dual (duplex) two-hybrid assay, two yeast populations mixed in one well, ruc signal
T1 construct: expressed in transfected cells; host or cells: Saccharomyces cerevisiae TB50 (WT and ERG6-deleted)
T1 sequence (P10827 1-410 isoform P10827-2): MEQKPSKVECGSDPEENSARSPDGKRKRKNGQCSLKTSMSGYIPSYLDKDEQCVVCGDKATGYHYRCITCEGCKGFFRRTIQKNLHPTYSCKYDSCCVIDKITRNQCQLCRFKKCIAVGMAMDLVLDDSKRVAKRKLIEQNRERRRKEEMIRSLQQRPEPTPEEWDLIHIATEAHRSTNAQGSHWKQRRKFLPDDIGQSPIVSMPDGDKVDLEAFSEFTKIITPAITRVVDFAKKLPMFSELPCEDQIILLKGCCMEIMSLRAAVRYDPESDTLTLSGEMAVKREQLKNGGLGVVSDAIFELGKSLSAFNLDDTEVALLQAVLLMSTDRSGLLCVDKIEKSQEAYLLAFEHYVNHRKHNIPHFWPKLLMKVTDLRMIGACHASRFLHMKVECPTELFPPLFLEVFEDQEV
Protocol: (§2) Yeast strains TB50 WT and TB50 ERG6 were transformed as described in Figure 1. They were grown from frozen transformants. For each strain, the two yeast cultures containing the two protein interactions were mixed together and delivered into a microwell plate. […] Experiments were performed in duplicates. The values are normalized with the signals obtained in presence of DMSO.
as §1, with “To reveal the activity of both luciferases, a Dual-Glo™ luciferase assay system was used (Promega, ref. E2920) according to the instructions of the manufacturer.” left out, “Values are given in LCPS (1LCPS = 100 counts per sec).” left out

[3] = tested on: lexA-TGFβ-R and B42-FKBP12; experiment: dual (duplex) two-hybrid assay, two yeast populations mixed in one well, luc signal
Protocol: as §2
as §1, with “To reveal the activity of both luciferases, a Dual-Glo™ luciferase assay system was used (Promega, ref. E2920) according to the instructions of the manufacturer.” left out, “Values are given in LCPS (1LCPS = 100 counts per sec).” left out

Chain of TGF-β-R/FKBP12 (Q62658 whole entry): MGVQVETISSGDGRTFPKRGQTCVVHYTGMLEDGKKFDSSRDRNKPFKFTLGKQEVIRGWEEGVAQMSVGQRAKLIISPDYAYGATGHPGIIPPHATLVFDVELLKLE
Chain of TGF-β-R/FKBP12 (P80204 146-501 partner): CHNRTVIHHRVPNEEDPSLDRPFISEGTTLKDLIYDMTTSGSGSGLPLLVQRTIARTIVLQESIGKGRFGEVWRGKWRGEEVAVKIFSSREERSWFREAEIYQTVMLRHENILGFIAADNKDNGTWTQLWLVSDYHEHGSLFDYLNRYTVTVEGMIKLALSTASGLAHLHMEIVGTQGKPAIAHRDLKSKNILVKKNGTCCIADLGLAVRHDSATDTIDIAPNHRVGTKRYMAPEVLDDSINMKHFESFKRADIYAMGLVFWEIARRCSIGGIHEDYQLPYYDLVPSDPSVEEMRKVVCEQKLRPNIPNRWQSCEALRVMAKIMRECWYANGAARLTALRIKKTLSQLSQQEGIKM

| SMILES | inhibition at 10 µM ([1]; read-out: % Inhibition 10µM, Addition of compound C 23h after induction of prey (partner B), plates read 5h later, TB50 WT) | inhibition at 10 µM ([1]; read-out: % Inhibition 10µM, Addition of compound C before induction of prey (partner B), 5h induction time, TB50 WT) | inhibition at 10 µM ([1]; read-out: inhibition of two-hybrid signals, 10µM FK506, maximum inhibition after 4h of induction time) | inhibition of the ruc two-hybrid signal ([2]; ERG6 deleted strain, high concentration of FK506, non-cognate interaction, duplex, induction time 5h) | effect on luc two-hybrid signal [3] | effect on ruc two-hybrid signal [2] |
| --- | --- | --- | --- | --- | --- | --- |
| C=CC[C@@H]1/C=C(\C)C[C@H](C)C[C@H](OC)[C@H]2O[C@@](O)(C(=O)C(=O)N3CCCC[C@H]3C(=O)O[C@H](/C(C)=C/[C@@H]3CC[C@@H](O)[C@H](OC)C3)[C@H](C)[C@@H](O)CC1=O)[C@H](C)C[C@@H]2OC [FK506] | 46% | 80% | > 90% | 40% |  |  |
| C[C@@H]1C[C@@H]([C@H](O)CC2CC(=O)NC(=O)C2)C(=O)[C@@H](C)C1 [cycloheximide] |  |  |  |  | strongly inhibited both two-hybrid signals | strongly inhibited both two-hybrid signals |
